Tests used:
[1] = tested on: GAGE 1, 2, and 8 expression in sarcoma and melanoma cell lines; experiment: Induction of GAGE gene expression by demethylation, RT-PCR with SEQ ID NOS: 4 and 5; assay type: cell-based; details: 1 uM, 72 hours in culture medium
Description: (§1) These experiments were designed to determine expression of GAGE genes in various cell and tumor types. For each type of cell assayed, total RNA was extracted, using standard guanidium-isothiocyanate procedures, as taught by e.g., Davis, et al. in Basic Methods In Molecular Biology, Elsevier Science Publishing Co., New York (1986), pp. 130-135. Reverse transcription was carried out on 2 ug samples of the total RNA, using 2 mM of Oligo(dT)15 primer, in a reaction volume of 20 ul. Portions of the resulting cDNA ( 1/20 of the product), were used in the PCR amplification. In order to amplify GAGE-1, 2, and 8, the primers used were:
(§2) For GAGE-3, 4, 5, 6; & 7B, the primers were: • 5′- GACCAAGGCG CTATGTAC-3′ • (sense, SEQ ID NO: 6) and SEQ ID NO: 5 For all amplifications, the denaturation step was 94° C. for 5 minutes, then 30 cycles of amplification (1 minute at 94° C., 2 minutes at 58° C., 2 minutes at 72° C.), then a final extension step of 72° C. for 15 minutes. The products were analyzed by agarose gel electrophoresis, with RNA integrity being checked by reverse transcription and amplification of β-actin mRNA.
(§3) In order to determine if expression of GAGE genes could be induced by demethylation, samples of cultured tumor and normal cells were incubated for 72 hours in culture medium containing 1 uM 5-aza-2′-deoxycytidine. SEQ ID NOS: 4 and 5, supra, were used in the amplification protocol.

[2] = tested on: GAGE genes expression in PHA stimulated PBLs; experiment: Induction of GAGE gene expression by demethylation in PHA stimulated PBLs; assay type: cell-based; details: 1 uM, 72 hours in culture medium
Description: as §1, §2, §3

Nc1ncn([C@H]2C[C@H](O)[C@@H](CO)O2)c(=O)n1 [5-aza-2′-deoxycytidine]
expression of GAGE 1, 2, and 8 after demethylating treatment [1]: induced
expression of all GAGE genes following treatment [2]: expressed
